In US20130274342A1, “COMPOSITIONS AND METHODS FOR TREATING COUGH” (Cerecor, Inc., priority 2012, published 2013):

Legend:
[1] = Memantine ex vivo buccal permeability (porcine buccal mucosa); assay type: in vitro ADME
[2] = cited from earlier work
[3] = absorption limited to the distal small bowel; cited from earlier work
Caco-2 cells = experiment: Memantine in vitro intestinal permeability (Caco-2 cells); assay type: in vitro ADME
[4] = Pharmacokinetic evaluation of memantine with sodium hydroxide, menthol and optionally NH4Cl in male beagle dogs (Example 2); assay type: in vivo; settings: 0.4 mg/kg, Route Oral
Procedure: The pharmacokinetics of memantine were evaluated after buccal administration in male beagle dogs. Memantine was formulated in water, 3.3 mg/mL sodium hydroxide in water, or 7.5 mg/mL sodium carbonate in water. All dogs received a 0.4 mg/kg dose of memantine. Plasma levels of memantine were determined by LC-MS/MS. Pharmacokinetic parameters were determined for the memantine plasma data.
For dosing, dogs were anesthetized with an IV injection of ketamine/diazepam, and maintained by isoflurane intubation during the buccal administration. The dosing solution was pipetted into a circular cylinder to concentrate the dosing solution on one area of the mucosa. At just prior to the 15 minute sample time point, the oral cavity was rinsed with 5 mL of water and dried with gauze. Immediately after the rinse, the 15 minute sample was collected.
The pharmacokinetics of memantine were evaluated after buccal administration in male beagle dogs using procedures similar to those used in Example 1, except that menthol or menthol and ammonium chloride where co-administered with the sodium hydroxide (Table 2). Table 2 provides a summary of pharmacokinetic findings, comparing memantine compositions containing an alkalinizing agent to increase local pH and a permeation enhancer (menthol), and optionally a urinary acidifying agent. […] Further addition of a urinary acidifying agent (e.g., NH4Cl) further reduces T1/2, indicating more rapid elimination of memantine.

[5] = Stability of memantine in alkaline conditions, solution and lozenge (Example 5); assay type: physicochemical
Procedure: The stability of memantine is studied within a pH range in both solution and in a lozenge dosage form. It is determined that when memantine is included in a buffer solution at a pH 8.0 or higher, memantine degrades and/or precipitates out of solution. It is determined that in a solution with a pH of 8.0, only about 85.3 percent of memantine is recovered; in a solution with a pH of 9.0, only about 29.8 percent of memantine is recovered; and in a solution with a pH of 10.0, only about 0.7 percent of memantine is recovered. In a solution with a pH of 1.0, it is determined that 97.6 percent of memantine is recovered and thus memantine is determined to be stable. It is also determined that memantine is unstable in a lozenge dosage form when it is in contact with an alkalinizing agent. It is determined that when memantine and sodium hydroxide are added together in a lozenge dosage form, only about 40% to about 60% memantine is recovered, with the remaining memantine degrading and/or precipitating out during the lozenge preparation process. It is determined that when memantine and sodium carbonate are added together in a lozenge dosage form, only about 40% to about 60% memantine is recovered, with the remaining memantine degrading and/or precipitating out during the lozenge preparation process.

[6] = test system: citric acid-induced cough; experiment: Citric acid-induced cough in guinea pigs, oral memantine vs vehicle; assay type: in vivo; settings: oral administration, dose response (FIG. 2)

increase in permeability of memantine in porcine buccal mucosa ([1]; increase in pH from 5.5 to 9.0 (FIG. 4)) | increase in permeability of memantine in porcine buccal mucosa ([1]; increase in pH from 8.0 to 9.0 (FIG. 5)) | permeability of memantine in Caco-2 cells (Caco-2 cells; increase in pH from pH 5.0 to 10.5 (FIG. 3)) | AUC0-∞ ([4]; 3.3 mg/ml sodium hydroxide + 5 mg/ml menthol) [ng·h/mL] | Cmax/Dose ([4]; 3.3 mg/ml sodium hydroxide + 5 mg/ml menthol + 20 mg/kg NH4Cl) | AUC0-t ([4]; Control) [ng·h/mL] | memantine recovered ([5]; solution with a pH of 1.0) [%] | memantine recovered ([5]; solution with a pH of 8.0) | memantine recovered ([5]; solution with a pH of 9.0) | memantine recovered ([5]; solution with a pH of 10.0) | effect as permeation enhancer on memantine Caco-2 permeability (Caco-2 cells; FIG. 6) | Compound | dissociation constant (pKa) [2] | time to maximum plasma concentration (Tmax) [3] [h] | efficacy on citric acid-induced cough relative to vehicle control [6]
over 100 fold | about 3.8 fold | gradually increases | 126 | 26.03 | 120 | 97.6 | about 85.3% | about 29.8% | about 0.7% |  | CC12CC3CC(C)(C1)CC(N)(C3)C2 [memantine, 3,5-dimethyl-1-adamantanamine] | ~10 | 4 to 7 | dose-dependent antitussive effects
 |  |  |  |  |  |  |  |  |  | ineffective | polysorbate 80 |  |  | 
